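These data come from cells grown in 96-well plates and exposed to compound for 48 hours at five concentrations. GI50: concentration for 50% inhibition of growth.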 Calls of active or inactive are those of the source. Cut-off read from the data, not from the text of the source: active = GI50 up to about 1.1 µM and inactive = higher.
Legend:
Assay in all cases: NCI anticancer screen, dose series, 48 h
[1] = system: NCI-H522
[2] = system: HT-29
[3] = system: NCI-H23
[4] = system: KM12
[5] = system: SW-620
[6] = system: K562
[7] = system: OVCAR-3
[8] = system: RPMI-8226
[9] = system: OVCAR-4
[10] = system: UACC-62
[11] = system: SNB-78
[12] = system: SK-MEL-2
[13] = system: SK-MEL-5
[14] = system: OVCAR-5
[15] = system: LOX IMVI
[16] = system: OVCAR-8
[17] = system: MOLT-4
[18] = system: HL-60
[19] = system: COLO 205
[20] = system: HOP-62
[21] = system: 786-0
[22] = system: Malme-3M
[23] = system: M14
[24] = system: M19-MEL
[25] = system: NCI-H460
[26] = system: LXFL 529
[27] = system: RXF 393
[28] = system: KM-20L2
[29] = system: HOP-92
[30] = system: SF-268
[31] = system: SK-MEL-28
[32] = system: CAKI-1
[33] = system: IGROV-1
[34] = system: DMS-273
[35] = system: A549
[36] = system: HCT-15
[37] = system: HCC 2998
[38] = system: SNB-75
[39] = system: CCRF-CEM
[40] = system: DLD-1
[41] = system: UACC-257
[42] = system: SK-OV-3
[43] = system: EKVX
[44] = system: SF-295
[45] = system: SN12C
[46] = system: TK-10
[47] = system: ACHN
[48] = system: HCT-116
[49] = system: UO-31
[50] = system: SF-539
[51] = system: NCI-H226
[52] = system: SNB-19
[53] = system: SR
[54] = system: U-251
[55] = system: A498
[56] = system: DMS-114

For `CCOC(=O)C(C(=O)OCC)=c1sc(=C(C(=O)OCC)C(=O)OCC)s1`, the GI50 [1] was > 100 µM (inactive), the GI50 [2] was > 100 µM (inactive) and the GI50 [3] was > 100 µM (inactive). The GI50 [4] was > 100 µM (inactive), the GI50 [5] was > 100 µM (inactive) and the GI50 [6] was > 100 µM (inactive). For the same compound, the GI50 [7] was > 100 µM (inactive), the GI50 [8] was > 100 µM (inactive) and the GI50 [9] was > 100 µM (inactive). The GI50 [10] was > 100 µM (inactive), the GI50 [11] was > 100 µM (inactive) and the GI50 [12] was > 100 µM (inactive). For the same compound, the GI50 [13] was > 100 µM (inactive), the GI50 [14] was > 100 µM (inactive) and the GI50 [15] was > 100 µM (inactive). For the same compound, the GI50 [16] was > 100 µM (inactive), the GI50 [17] was > 100 µM (inactive) and the GI50 [18] was > 100 µM (inactive). For the same compound, the GI50 [19] was > 100 µM (inactive), the GI50 [20] was > 100 µM (inactive) and the GI50 [21] was > 100 µM (inactive). The GI50 [22] was > 100 µM (inactive), the GI50 [23] was > 100 µM (inactive) and the GI50 [24] was > 100 µM (inactive). The GI50 [25] was > 100 µM (inactive), the GI50 [26] was > 100 µM (inactive) and the GI50 [27] was > 100 µM (inactive). The GI50 [28] was > 100 µM (inactive), the GI50 [29] was > 100 µM (inactive) and the GI50 [30] was > 100 µM (inactive). For the same compound, the GI50 [31] was > 100 µM (inactive), the GI50 [32] was > 100 µM (inactive) and the GI50 [33] was > 100 µM (inactive). The GI50 [34] was > 100 µM (inactive), the GI50 [35] was > 100 µM (inactive) and the GI50 [36] was > 100 µM. The GI50 [37] was > 100 µM (inactive), the GI50 [38] was 76.2 µM (inactive) and the GI50 [39] was > 100 µM (inactive). The GI50 [40] was > 100 µM (inactive), the GI50 [41] was > 100 µM (inactive) and the GI50 [42] was > 100 µM (inactive). For the same compound, the GI50 [43] was > 100 µM (inactive), the GI50 [44] was > 100 µM (inactive) and the GI50 [45] was > 100 µM (inactive). The GI50 [46] was > 100 µM (inactive) and the GI50 [47] was > 100 µM (inactive).
For `Cc1ccc(Nc2nc(-c3ccc(-c4ccc([N+](=O)[O-])cc4)o3)cs2)cc1`, the GI50 [2] was 28.4 µM (inactive), the GI50 [48] was 67.1 µM (inactive) and the GI50 [3] was 25.6 µM (inactive). The GI50 [4] was 52.8 µM (inactive), the GI50 [5] was 95.3 µM (inactive) and the GI50 [6] was 14.2 µM (inactive). The GI50 [7] was > 100 µM (inactive), the GI50 [8] was 12.6 µM (inactive) and the GI50 [9] was 63.1 µM (inactive). The GI50 [10] was 99.8 µM (inactive), the GI50 [11] was 66.5 µM (inactive) and the GI50 [12] was > 100 µM (inactive). For the same compound, the GI50 [14] was 59 µM (inactive), the GI50 [15] was 33.8 µM (inactive) and the GI50 [16] was 40.6 µM (inactive). The GI50 [49] was 8.51 µM (inactive), the GI50 [17] was 4.54 µM (inactive) and the GI50 [18] was 58.7 µM (inactive). The GI50 [19] was 40 µM (inactive), the GI50 [20] was > 100 µM (inactive) and the GI50 [21] was 68.5 µM (inactive). For the same compound, the GI50 [22] was 65.2 µM (inactive), the GI50 [23] was > 100 µM (inactive) and the GI50 [24] was 51.2 µM (inactive). For the same compound, the GI50 [25] was 44 µM (inactive), the GI50 [26] was 29.3 µM (inactive) and the GI50 [28] was 29.6 µM (inactive). For the same compound, the GI50 [50] was 93.8 µM (inactive), the GI50 [51] was 48.3 µM (inactive) and the GI50 [29] was 37.2 µM (inactive). The GI50 [30] was > 100 µM (inactive), the GI50 [31] was 38 µM (inactive) and the GI50 [32] was > 100 µM (inactive). The GI50 [33] was 22.7 µM (inactive), the GI50 [34] was 42.6 µM (inactive) and the GI50 [35] was 52.7 µM (inactive). The GI50 [36] was 15.7 µM, the GI50 [37] was 23.4 µM (inactive) and the GI50 [38] was 50.5 µM (inactive). For the same compound, the GI50 [40] was 41.4 µM (inactive), the GI50 [52] was > 100 µM (inactive) and the GI50 [41] was 21.5 µM (inactive). For the same compound, the GI50 [42] was > 100 µM (inactive), the GI50 [53] was 11.4 µM (inactive) and the GI50 [44] was 33.2 µM (inactive). The GI50 [45] was 73.6 µM (inactive), the GI50 [46] was 25.4 µM (inactive) and the GI50 [47] was 34 µM (inactive). For the same compound, the GI50 [54] was 35 µM (inactive).
With `COCC1N=C(c2cc(OC)c(OC)c(OC)c2-c2cc3c(cc2C2OCCCO2)OCO3)O[C@H]1c1ccccc1` (stereo partly drawn) the GI50 [1] was > 100 µM (inactive), the GI50 [2] was > 100 µM (inactive) and the GI50 [55] was > 100 µM (inactive). For the same compound, the GI50 [48] was > 100 µM (inactive), the GI50 [3] was > 100 µM (inactive) and the GI50 [4] was > 100 µM (inactive). For the same compound, the GI50 [5] was > 100 µM (inactive), the GI50 [6] was > 100 µM (inactive) and the GI50 [7] was > 100 µM (inactive). For the same compound, the GI50 [8] was > 100 µM (inactive), the GI50 [9] was > 100 µM (inactive) and the GI50 [10] was > 100 µM (inactive). The GI50 [12] was > 100 µM (inactive), the GI50 [13] was > 100 µM (inactive) and the GI50 [14] was > 100 µM (inactive). The GI50 [15] was > 100 µM (inactive), the GI50 [16] was > 100 µM (inactive) and the GI50 [49] was > 100 µM (inactive). The GI50 [17] was > 100 µM (inactive), the GI50 [18] was > 100 µM (inactive) and the GI50 [56] was > 100 µM (inactive). For the same compound, the GI50 [20] was > 100 µM (inactive), the GI50 [21] was > 100 µM (inactive) and the GI50 [22] was > 100 µM (inactive). The GI50 [23] was > 100 µM (inactive), the GI50 [24] was > 100 µM (inactive) and the GI50 [25] was > 100 µM (inactive). For the same compound, the GI50 [27] was > 100 µM (inactive), the GI50 [28] was > 100 µM (inactive) and the GI50 [50] was > 100 µM (inactive). For the same compound, the GI50 [51] was > 100 µM (inactive), the GI50 [29] was > 100 µM (inactive) and the GI50 [30] was > 100 µM (inactive). For the same compound, the GI50 [31] was > 100 µM (inactive), the GI50 [32] was 79.4 µM (inactive) and the GI50 [33] was > 100 µM (inactive). For the same compound, the GI50 [34] was > 100 µM (inactive), the GI50 [35] was > 100 µM (inactive) and the GI50 [36] was > 100 µM. For the same compound, the GI50 [37] was > 100 µM (inactive), the GI50 [38] was > 100 µM (inactive) and the GI50 [39] was > 100 µM (inactive). The GI50 [40] was > 100 µM (inactive), the GI50 [52] was > 100 µM (inactive) and the GI50 [41] was > 100 µM (inactive). The GI50 [42] was > 100 µM (inactive), the GI50 [43] was > 100 µM (inactive) and the GI50 [44] was > 100 µM (inactive). For the same compound, the GI50 [45] was > 100 µM (inactive), the GI50 [46] was > 100 µM (inactive) and the GI50 [47] was > 100 µM (inactive). The GI50 [54] was > 100 µM (inactive).

— ChEMBL document CHEMBL1201862, “PubChem BioAssay data set” (2004)
